Experiments:
[1] = test system: androgen-independent DU145 cells; assay: CCK-8 cell viability assay, DU145; format: cell-based, human
Method: (§1) To determine the cell viability effect of nano-Se in human prostate cancer cells, androgen-dependent LNCaP cells and androgen-independent DU145 cells were treated with 0, 1, 5, 10, 50 and 100 μM of Nano-Se particle suspensions for 24 and 48 hrs respectively.
(§2) LNCaP (Lot#1735217), and DU-145 (Lot#1145858) human prostate cancer cell lines were purchased from the American Type Culture Collection (ATCC, Manassas, Va., USA). Cells were maintained in 1640 culture medium (Invitrogen Life Technologies, USA) supplemented with 10% (v/v) fetal bovine serum and antibiotics.
(§3) For cell viability assay, cells were seeded into 96-well plates at a density of 1×10^4 cells/well, and 40-50% confluent cells were subsequently treated with nano-Se nanoparticles (1 to 100 μM) or distilled water for 24 or 48 hrs respectively. Treated cells were then collected and measured by Cell Counting Kit-8 (CCK-8) system (Dojindo Laboratory, Kumamoto, Japan). Briefly, CCK-8 solution (10 μl per 100 ul of medium in each well) was added, the plates were then incubated at 37° C. for 1 hour, and the absorbance of each well was read at 450 nm using a microplate reader. Values were shown as means±SE of quadruplicated determinations of a representative experiment (repeated three times). Differences between groups were analyzed using Student's test with significance assumed at p<0.05. All statistical analyses were performed using Origin75 software.
Cells were treated with 0-100 μM nano-Se nanoparticles or MSA for 24 and 48 hours. Cells were then collected and cell viabilities were assayed. The data shown are mean±standard of three samples for each treatment. Differences between groups were analyzed using Student's test with significance assumed at p<0.05.

[2] = test system: human breast cancer cell line MCF-7 cells; assay: Cell viability assay, MCF-7; format: cell-based
Method: as §3
(§4) In reference to FIGS. 3A and 3B, 4A and 4B, 5A and 5B, 6A and 6B, the effects of nano-Se nanoparticles on cell viability are compared to that of MSA in androgen dependent prostate cancer line LNCaP cells, androgen independent prostate cancer line DU145 cells, human breast cancer cell line MCF-7 cells, human lung carcinoma cell line A549 cells.
(§5) Cells were treated with 0-100 μM nano-Se nanoparticles or MSA for 24 and 48 hours. […] Differences between groups were analyzed using Student's test with significance assumed at p<0.05.

[3] = test system: human lung carcinoma cell line A549 cells; assay: Cell viability assay, A549; format: cell-based
Method: as §3, §4, §5

[4] = test system: androgen-dependent LNCaP cells; assay: CCK-8 cell viability assay, LNCaP; format: cell-based, human; conditions: 0-100 μM, 24 and 48 hours
Method: as §1, §2
as §3, with “All statistical analyses were performed using Origin75 software.” left out

androgen receptor [5] = molecular target: T1, androgen receptor (Homo sapiens, UniProt P10275); assay: MMTV-luc androgen receptor luciferase reporter assay in HEK293; format: cell-based; conditions: MMTV promoter construct, HEK293, 10 nM
T1 construct: the full length human wild type androgen receptor cDNA expression plasmid pAR0; expressed in transfected cells; host or cells: HEK293
T1 sequence (P10275 1-920): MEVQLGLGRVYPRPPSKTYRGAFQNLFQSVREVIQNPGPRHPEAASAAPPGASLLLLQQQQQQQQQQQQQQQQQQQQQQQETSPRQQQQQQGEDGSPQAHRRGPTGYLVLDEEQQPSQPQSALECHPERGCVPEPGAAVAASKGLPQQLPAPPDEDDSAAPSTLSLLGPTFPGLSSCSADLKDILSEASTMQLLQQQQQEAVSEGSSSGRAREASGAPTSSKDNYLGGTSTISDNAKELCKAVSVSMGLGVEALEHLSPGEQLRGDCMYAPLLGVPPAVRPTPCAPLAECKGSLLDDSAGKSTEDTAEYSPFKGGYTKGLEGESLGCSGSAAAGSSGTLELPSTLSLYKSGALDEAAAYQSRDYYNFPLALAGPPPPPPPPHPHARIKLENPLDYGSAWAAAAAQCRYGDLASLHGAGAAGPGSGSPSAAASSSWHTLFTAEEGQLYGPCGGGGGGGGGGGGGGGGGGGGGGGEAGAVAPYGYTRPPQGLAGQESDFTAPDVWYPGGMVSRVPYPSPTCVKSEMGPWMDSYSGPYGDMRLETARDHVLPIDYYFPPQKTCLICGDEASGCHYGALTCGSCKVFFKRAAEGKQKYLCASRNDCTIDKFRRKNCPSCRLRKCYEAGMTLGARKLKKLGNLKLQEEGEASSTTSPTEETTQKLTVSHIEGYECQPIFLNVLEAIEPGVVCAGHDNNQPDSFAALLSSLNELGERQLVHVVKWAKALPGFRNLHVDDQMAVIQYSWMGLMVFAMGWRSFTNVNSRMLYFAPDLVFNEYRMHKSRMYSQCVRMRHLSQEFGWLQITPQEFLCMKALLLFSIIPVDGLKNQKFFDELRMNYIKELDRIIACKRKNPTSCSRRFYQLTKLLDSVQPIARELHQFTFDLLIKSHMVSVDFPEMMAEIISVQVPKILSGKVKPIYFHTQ
Method: (§6) Both MMTV-luc and pGL3-PSA-luc plasmids contain Androgen Receptor binding site which recruits androgen receptor and its co-activator to recruit RNA Pol II to the promoter region.
(§7) Cells were then lysed and assayed for luciferase activity using Dual-Luciferase® Reporter Assay System (Promega, Madison, Wis., USA), the experiment was performed in triplicate and repeated at least four times.

androgen receptor [6] = molecular target: T1, androgen receptor; assay: pGL3-PSA-luc androgen receptor luciferase reporter assay in HEK293; format: cell-based; conditions: PSA promoter construct, HEK293, 10 nM
Method: as §6, §7

Structure (SMILES) | effect on cell viability ([1]; DU145, 0-100 μM, 24 and 48 hours, dose and time-dependent) | effect on cell viability, MSA versus nano-Se ([1]; DU145, 24 hour treatment, all measured concentrations) | effect on cell viability, nano-Se versus MSA ([1]; DU145, 48 hour treatment) | effect on cell viability ([2]; MCF-7, 0-100 μM, 24 and 48 hours, dose and time-dependent) | potency in decreasing cell viability, MSA versus nano-Se ([2]; MCF-7, 24 and 48 hours) | effect on cell viability ([3]; A549, 0-100 μM, 24 and 48 hours, dose and time-dependent) | potency in decreasing cell viability, MSA versus nano-Se ([3]; A549, 24 and 48 hours) | effect on cell viability [4] | androgen receptor dependent promoter activity (luciferase) (androgen receptor [5]) | androgen receptor dependent promoter activity (luciferase) (androgen receptor [6])
C[Se](=O)O [MSA, Methylseleninic acid] | decreased cell viability | more significant | comparable | decreased cell viability | more potent in decreasing cell viability | decreased cell viability | more potent in decreasing cell viability | decreased cell viability | – | –
C[C@]1(O)CC[C@H]2[C@@H]3CCC4=CC(=O)CCC4=C3C=C[C@@]21C [R1881] | – | – | – | – | – | – | – | – | induced androgen receptor dependent promoter activity | induced androgen receptor dependent promoter activity

Reference: patent US20110262564A1, “Treatment of Cancer with Selenium Nanoparticles” (priority 2010, published 2011)
